One data set deals with PDE4. Nature of the data set: Inhibition of PDE4 (cytosolic enzyme preparation from U937 line), compared with rolipram. Format: biochemical, human. The conditions noted are these: PDE4 enzyme preparation obtained from the U937 line.

One may read the IC50 as the midpoint of a concentration-inhibition curve. Low readings indicate higher potency, high ones lower potency. As a reminder, the melting point is the temperature, or range, at which the solid turns liquid.

On to `CCCn1nc(C(C)CC)c2c1C(=O)NCC(c1ccccc1)=N2` (racemic) [Example 70, (±)3-sec-Butyl-5-phenyl-1-propyl-6,7-dihydro-1H-pyrazolo-[4,3-e][1,4]diazepin-8-one], for which, at PDE4, inhibition was half-maximal at 11 nM (IC50). In turn, `CCC(C)c1nn(CC)c2c1N=C(c1ccc(OC)cc1)CNC2=O` (racemic) [Example 89, (±)3-sec-Butyl-1-ethyl-5-(4-methoxyphenyl)-6,7-dihydro-1H-pyrazolo[4,3-e][1,4]diazepin-8-one] displayed a melting point of 50 °C. Moreover, the 50% inhibitory concentration (IC50) against PDE4 was found to be 33 nM.

In turn, `CCCn1nc(C(C)CC)c2c1C(=O)NCC(c1ccc(OC)cc1)=N2` (racemic) [Example 90, (±)3-sec-Butyl-5-(4-methoxyphenyl)-1-propyl-6,7-dihydro-1H-pyrazolo[4,3-e][1,4]diazepin-8-one] gave a melting point of 85 °C. The compound also had an IC50 against PDE4 of 193 nM. Take `CCn1nc(-c2ccccc2)c2c1C(=O)NCC(c1ccccc1)=N2` [Example 4, 1-Ethyl-3,5-diphenyl-6,7-dihydro-1H-pyrazolo[4,3-e][1,4]diazepin-8-one]: the IC50 against PDE4 was 8.4 nM.

Turning to `CCOC(=O)c1nn(CC)c2c1N=C(c1ccccc1)CNC2=O` [Example 5, Ethyl 1-ethyl-8-oxo-5-phenyl-1,6,7,8-tetrahydropyrazolo-[4,3-e][1,4]diazepin-3-carboxylate], the IC50 against PDE4 was found to be 390 nM.

The compound `CCn1nc(C)c2c1C(=O)NCC(c1ccc(Br)cc1)=N2` [Example 7, 5-(4-Bromophenyl)-1-ethyl-3-methyl-6,7-dihydro-1H-pyrazolo[4,3-e][1,4]diazepin-8-one] gave a melting point of 223 °C. The compound also came in with an IC50 at PDE4 of 130 nM. The compound `CCn1nc(C)c2c1C(=O)NCC(c1ccc3ccccc3c1)=N2` [Example 8, 1-Ethyl-3-methyl-5-naphth-2-yl-6,7-dihydro-1H-pyrazolo[4,3-e][1,4]diazepin-8-one] gave a melting point of 193 °C. The compound also showed a concentration for half-maximal inhibition (IC50) on PDE4 of 210 nM.

Compound `CCn1nc(C)c2c1C(=O)NCC(c1sccc1Cl)=N2` [Example 9, 5-(3-Chlorothien-2-yl)-1-ethyl-3-methyl-6,7-dihydro-1H-pyrazolo[4,3-e][1,4]diazepin-8-one] had a melting point of 213 °C. The compound further gave an IC50 against PDE4 of 150 nM.

`CCn1nc(C)c2c1C(=O)NCC(CCC(=O)OC)=N2` [Example 10, Methyl 3-(1-ethyl-3-methyl-8-oxo-1,6,7,8-tetrahydro-pyrazolo[4,3-e][1,4]diazepin-5-yl)propanoate] gave an IC50 on PDE4 of 1290 nM. Compound `CCn1nc(C)c2c1C(=O)NCC(c1ccc(Cl)cc1)=N2` [Example 11, 5-(4-Chlorophenyl)-1-ethyl-3-methyl-6,7-dihydro-1H-pyrazolo[4,3-e][1,4]diazepin-8-one] had a melting point of 215 °C. Further, the IC50 against PDE4 amounted to 120 nM. `CCn1nc(C)c2c1C(=O)NCC(c1ccc(F)cc1)=N2` [Example 13, 1-Ethyl-5-(4-fluorophenyl)-3-methyl-6,7-dihydro-1H-pyrazolo[4,3-e][1,4]diazepin-8-one] showed a melting point of 174 °C. The compound further registered an IC50 against PDE4 of 130 nM. In the case of `CCn1nc(C)c2c1C(=O)NCC(c1cccc(Br)c1)=N2` [Example 14, 5-(3-Bromophenyl)-1-ethyl-3-methyl-6,7-dihydro-1H-pyrazolo-[4,3-e][1,4]diazepin-8-one], the melting point amounted to 173 °C. The same compound gave a concentration for half-maximal inhibition (IC50) against PDE4 of 81 nM. On the same counts, the results for `CCn1nc(C)c2c1C(=O)NCC(c1cccc(OC)c1)=N2` [Example 18, 1-Ethyl-5-(3-methoxyphenyl)-3-methyl-6,7-dihydro-1H-pyrazolo[4,3-e][1,4]diazepin-8-one] are 120 °C and 100 nM.

As for `CCn1nc(C)c2c1C(=O)NCC(c1ccccc1N)=N2` [Example 19, 5-(2-Aminophenyl)-1-ethyl-3-methyl-6,7-dihydro-1H-pyrazolo[4,3-e][1,4]diazepin-8-one], the melting point turned out to be 156 °C. At PDE4, the IC50 was 87 nM. Regarding `CCn1nc(C)c2c1C(=O)NCC(c1ccccc1OC)=N2` [Example 20, 1-Ethyl-5-(2-methoxyphenyl)-3-methyl-6,7-dihydro-1H-pyrazolo[4,3-e][1,4]diazepin-8-one], the melting point is 214 °C. The same compound had an IC50 on PDE4 of 99 nM. With `Cc1nn(CC(F)(F)F)c2c1N=C(c1ccccc1)CNC2=O` [Example 30, 3-Methyl-5-phenyl-1-(2.2.2-trifluoroethyl)-6,7-dihydro-1H-pyrazolo[4,3-e][1,4]diazepin-8-one], at PDE4, 300 nM corresponded to half-maximal inhibition (IC50). As for `CCn1nc(C(C)C)c2c1C(=O)NCC(c1ccc(N3CCCC3)cc1)=N2` [Example 38, 1-Ethyl-3-isopropyl-5-(4-pyrrolidin-1-yl-phenyl)-6,7-dihydro-1H-pyrazolo[4,3-e][1,4]diazepin-8-one], at PDE4, the IC50 was 650 nM. At PDE4, `CCCn1nc(C(C)C)c2c1C(=O)NCC(c1ccc(OC)cc1OC)=N2` [Example 43, 5-(2,4-Dimethoxyphenyl)-3-isopropyl-1-propyl-6,7-dihydro-1H-pyrazolo[4,3-e][1,4]diazepin-8-one] registered an IC50 of 48 nM.

In turn, `CCn1nc(C(C)(C)C)c2c1C(=O)NCC(C(C)(C)C)=N2` [Example 44, 3,5-Di-tert-butyl-1-ethyl-6,7-dihydro-1H-pyrazolo[4,3-e][1,4]diazepin-8-one] registered an IC50 at PDE4 of 1.1 nM. Against the preceding compound, the IC50 is about 44-fold lower. At PDE4, `CCn1nc(C(C)(C)C)c2c1C(=O)NCC(c1ccc(OC)cc1OC)=N2` [Example 47, 3-tert-Butyl-5-(2,4-dimethoxyphenyl)-1-ethyl-6,7-dihydro-1H-pyrazolo[4,3-e][1,4]diazepin-8-one] had an IC50 of 21 nM. This IC50 is about 19-fold higher than that of the compound before. At PDE4, `CCCn1nc(C(C)(C)C)c2c1C(=O)NCC(C(C)(C)C)=N2` [Example 48, 3,5-Di-tert-butyl-1-propyl-6,7-dihydro-1H-pyrazolo[4,3-e][1,4]diazepin-8-one] registered an IC50 of 8.1 nM. This IC50 lies about 2.6-fold lower than the previous one. The same measure, in the same setting: under `CCCn1nc(C(C)(C)C)c2c1C(=O)NCC(c1ccc(C)cc1)=N2` [Example 49, 3-tert-Butyl-1-propyl-5-p-tolyl-6,7-dihydro-1H-pyrazolo[4,3-e][1,4]diazepin-8-one] stands 32 nM; under `CCCn1nc(C(C)(C)C)c2c1C(=O)NCC(c1ccc(C#N)cc1)=N2` [Example 50, 4-(3-tert-Butyl-8-oxo-1-propyl-1,6,7,8-tetrahydro-1H-pyrazolo[4,3-e][1,4]diazepin-5-yl)benzonitrile], 16 nM. With `CCCn1nc(C(C)(C)C)c2c1C(=O)NCC(c1ccc(OC)cc1OC)=N2` [Example 51, 3-tert-Butyl-5-(2,4-dimethoxyphenyl)-1-propyl-6,7-dihydro-1H-pyrazolo[4,3-e][1,4]diazepin-8-one], the IC50 at PDE4 amounted to 60 nM. This IC50 is about 3.8-fold higher than that of the compound before.

At PDE4, `CCn1nc(C)c2c1C(=O)NCC(c1ccc(N(S(=O)(=O)c3ccccc3)S(=O)(=O)c3ccccc3)cc1)=N2` [Example 56, N-[4-(1-Ethyl-3-methyl-8-oxo-1,6,7,8-tetrahydro-pyrazolo[4,3-e][1,4]diazepin-5-yl)phenyl]-(phenylsulphonyl)benzenesulphonamide] came in with an IC50 of 500 nM.

On to `Cc1nn(CC2CC2)c2c1N=C(c1ccccc1)CNC2=O` [Example 58, 1-Cyclopropylmethyl-3-methyl-5-phenyl-6,7-dihydro-1H-pyrazolo[4,3-e][1,4]diazepin-8-one], for which inhibition against PDE4 was half-maximal at 140 nM (IC50). Same read-out and setting: under `C=CCn1nc(C)c2c1C(=O)NCC(c1ccccc1)=N2` [Example 59, 1-Allyl-3-methyl-5-phenyl-6,7-dihydro-1H-pyrazolo[4,3-e][1,4]diazepin-8-one] stands 510 nM; under `CCn1nc(C(C)C)c2c1C(=O)NCC(c1ccc(C(F)(F)F)cc1)=N2` [Example 61, 1-Ethyl-3-isopropyl-5-(4-trifluoromethylphenyl)-6,7-dihydro-1H-pyrazolo[4,3-e][1,4]diazepin-8-one], 7.9 nM. On PDE4, `CCn1nc(C)c2c1C(=O)NCC(c1ccc(C(F)(F)F)cc1)=N2` [Example 62, 1-Ethyl-3-methyl-5-(4-trifluoromethylphenyl)-6,7-dihydro-1H-pyrazolo[4,3-e][1,4]diazepin-8-one] gave an IC50 of 260 nM. In turn, `CCn1nc(C2CCCCC2)c2c1C(=O)NCC(c1ccccc1)=N2` [Example 72, 3-Cyclohexyl-1-ethyl-5-phenyl-6,7-dihydro-1H-pyrazolo-[4,3-e][1,4]diazepin-8-one] showed an IC50 on PDE4 of 1.8 nM. Take `CCCn1nc(C2CCCCC2)c2c1C(=O)NCC(c1ccccc1)=N2` [Example 74, 3-Cyclohexyl-5-phenyl-1-propyl-6,7-dihydro-1H-pyrazolo-[4,3-e][1,4]diazepin-8-one]: the IC50 against PDE4 was 5.4 nM. Same read-out and setting: under `CCn1nc(CC2CCCCC2)c2c1C(=O)NCC(c1ccncc1)=N2` [Example 76, 3-Cyclohexylmethyl-1-ethyl-5-pyrid-4-yl-6,7-dihydro-1H-pyrazolo[4,3-e][1,4]diazepin-8-one] stands 8.2 nM; under `CCCn1nc(CC2CCCCC2)c2c1C(=O)NCC(c1ccccc1)=N2` [Example 77, 3-Cyclohexylmethyl-5-phenyl-1-propyl-6,7-dihydro-1H-pyrazolo[4,3-e][1,4]diazepin-8-one], 210 nM. Compound `CCCn1nc(CC2CCCCC2)c2c1C(=O)NCC(c1ccncc1)=N2` [Example 78, 3-Cyclohexylmethyl-1-propyl-5-pyrid-4-yl-6,7-dihydro-1H-pyrazolo[4,3-e][1,4]diazepin-8-one] displayed an IC50 against PDE4 of 21 nM.

Compound `CCn1nc(CC2CCCCC2)c2c1C(=O)NCC(c1ccccc1)=N2` [Example 79, 3-Cyclohexylmethyl-1-ethyl-5-phenyl-6,7-dihydro-1H-pyrazolo[4,3-e][1,4]diazepin-8-one] returned an IC50 against PDE4 of 11 nM. The compound `CCn1nc(C)c2c1C(=[SH]c1ccc(OC)cc1)NCC=N2` [Example 83, 1-Ethyl-S-(4-methoxyphenyl)-3-methyl-6,7-dihydro-1H-pyrazolo[4,3-e][1,4]diazepin-8-thione] displayed a melting point of 209 °C. In the case of `CCOCc1nn(CC)c2c1N=C(c1ccccc1)CNC2=O` [Example 97, 3-Ethoxymethyl-1-ethyl-5-phenyl-6,7-dihydro-1H-pyrazolo-[4,3-e][1,4]diazepin-8-one], at PDE4, the IC50 came out at 1580 nM.
